Experimental findings from patent US6368618B1, “Composition and method for enhanced transdermal absorption of nonsteroidal anti-inflammatory drugs” (The University of Georgia Research Foundation, Inc., priority 1999, dated 2002) are described below.

What all share (assay type): physicochemical
Data set [1] can be described thus: Melt state of physical mixtures of S(+)-ibuprofen and thymol. As to conditions: physical mixtures with thymol. From the text:
The melt states of the two compounds were then examined weekly for 3 months using an optical microscope.

The nature of data set [2]: Melt state of ibuprofen in aqueous isopropyl alcohol (optical microscope). To be noted: 25° C. On the set-up: key: S: solid crystals present (FIG. 1-B); O: no crystals present (FIG. 1-A). The text has this:
The total weight of each mixture was 10 g.
FIG. 1-A represents a two phase melt system with homogeneous oil and aqueous phases, and FIG. 1-B represents a system where complete melt is not achieved. […] (FIG. 1-B). […] (FIG. 1-A).

Data set [3] in a line: Composition of the oil phase of two phase melt systems by GC-MS. To be noted: oil phase of dispersion with 15% isopropyl alcohol, no thymol. Here is the method: The composition of the oil phase formed in the dispersion containing 15% isopropyl alcohol was determined by the gas chromatrography-mass spectrometry (GC-MS) analysis.
After ultracentrifugation at 20,000 rpm for 30 minutes at 25° C. of selected two phase melt systems (Systems I, II, III and IV as shown in Table 3) that had been stored at 25° C. for three months, a portion of the oil phase of these melt systems was removed using a micro-sampling tube and was weighed accurately by a taring method.

Data set [4] is described as follows: Melt state of ibuprofen and thymol in aqueous isopropyl alcohol. To be noted: racemic ibuprofen in place of S(+)-ibuprofen, with thymol and aqueous IPA, samples as in Table 3, 25° C. The procedure:
(10 g total weight). Replicate samples of these mixtures were prepared at 25° C. and were stored at 25, 15, and 4° C. for three months. During storage, the melt states of the composition were examined weekly using an optical microscope. The results are shown in Table 3, where O and S denote systems described as in FIG. 1-A and 1-B, respectively, at the corresponding temperature. […] The lower the SI:T ratio and the higher the alcohol content, the lower the melting range of the solid components in the mixture, as shown by the attainment of the melt state. […] Thus the use of thymol and aqueous isopropyl alcohol in combination allows the preparation of two phase melt systems with the highest possible SI:T ratio and the lowest isopropyl alcohol content at 25° C.

With `CC(C)Cc1ccc([C@H](C)C(=O)O)cc1` [S(+)-ibuprofen, a-methyl-4-(2-methylpropyl) benzene-acetic acid], the Melt state result in data set [1] (SI:T ratios 5:5 to 6:4 (w:w), ambient temperature (20-25° C.)) is on record as “spontaneously formed a homogeneous oil”; in data set [1] (SI:T ratios outside 5:5 to 6:4 (1:9 to 9:1 tested), 25° C.) it was “complete melting of the compounds did not occur”; in data set [2] (5% S(+)-ibuprofen, 5% IPA, pH 4.0 acetate buffer, 3 months), “S”; in data set [2] (5% S(+)-ibuprofen, 10% IPA, pH 4.0 acetate buffer, 3 months) it was “S”; in data set [2] (5% S(+)-ibuprofen, 15% IPA, pH 4.0 acetate buffer, 3 months) it was “O”; in data set [2] (5% S(+)-ibuprofen, 20% IPA, pH 4.0 acetate buffer, 3 months), “O”. Besides, the Melt state entry in data set [2] (isopropyl alcohol 10% or less by weight of total composition) is listed as “did not completely melt”; in data set [2] (isopropyl alcohol 15% or higher) it was “completely transformed into an oil”. For the same molecule, the “concentration of S(+)-ibuprofen in the oil” value in data set [3] is 68.4 % (w:w).
As to `CC(C)Cc1ccc(C(C)C(=O)O)cc1` (racemic) [racemic ibuprofen, a-methyl-4-(2-methylpropyl) benzene-acetic acid], the Melt state entry was “complete melt of the solids was never achieved” in data set [4] and “complete melt was never achieved” in data set [2] (racemic ibuprofen in place of S(+)-ibuprofen, samples as in Table 2, even at 25% IPA or higher).
